We go through 22 compounds from patent publication US20050209256A1, “Novel beta-turn mimetics as calcitonin gene related peptide receptor antagonists” (priority 2004, published 2005).

Each structure is given as a SMILES string.

The experiment has as its target T1, human CGRP receptor (Homo sapiens, UniProt O60894+Q16602).
T1 construct: SK-N-MC cells that endogenously express the human CGRP receptor; endogenous in cells; host or cells: SK-N-MC cells (membrane homogenates)
The experiment can be described thus: Radioligand binding assay, [125I]-CGRP competition on SK-N-MC cell homogenates. As to conditions: Binding data, [125I]-CGRP 40 pM, room temperature. On the procedure: Tissue culture. SK-N-MC cells were grown at 37° C. in 5% CO2 as a monolayer in medium consisting of MEM with Earle's salts and L-glutamine (Gibco) supplemented with 10% fetal bovine serum (Gibco).
Radioligand binding assays. Cells were rinsed twice with phosphate-buffered saline (155 mM NaCl, 3.3 mM Na2HPO4, 1.1 mM KH2PO4, pH 7.4), and incubated for 5-10 min. at 4° C. in hypotonic lysis buffer consisting of 10 mM Tris (pH 7.4) and 5 mM EDTA. Cells were transferred from plates to polypropylene tubes (16×100 mm), homogenized and centrifuged at 32,000×g for 30 min. Pellets were resuspended in buffer consisting of 50 mM Tris (pH 7.4) and 1 mM EDTA, homogenized, and centrifuged again at 32,000×g for 30 min. Pellets were resuspended in 100 mM Tris-Cl pH 7.5, 10 mM MgCl2, 0.1% mammalian protease inhibitor cocktail (Sigma) and stored at −80° C. until needed. On the day of an experiment, homogenates were thawed and homogenized again. Binding of [^125I]-CGRP (NEN) was carried out in buffer containing 50 mM Tris-Cl pH 7.5, 5 mM MgCl2, 0.5% BSA. Homogenates (3.5 μg protein/well) were incubated with competitor compounds (solubilized in 100% DMSO at 100× their final assay concentrations) for one hour at room temperature. Then [^125I]-CGRP was added (40 pM final concentration) and the reaction incubated for one additional hour at room temperature. Assays were stopped by addition of cold wash buffer (20 mM Tris-Cl pH 7.5, 0.1% BSA) immediately followed by filtration over glass fiber filters (Whatman GF/B) previously soaked in 0.5% PEI. Non-specific binding was defined with 100 nM CGRP.
`CC(=O)c1ccc(NC(=O)N2CCC(=O)N3[C@@H]2CN(CCc2cccc(F)c2)C(=O)[C@@H]3CC[S+](C)[O-])cc1` (mixture of isomers) [Compound 42, (6S,9aS)-8-[2-(3-Fluoro-phenyl)-ethyl]-6-(2-methanesulfinyl-ethyl)-4,7-dioxo-hexahydro-pyrazino [1,2-a]pyrimidine-1-carboxylic acid (4-acetyl-phenyl)-amide] had an IC50 of 778 nM. To `CCSCC1C(=O)N(CCc2cccc(F)c2)C[C@@H]2N(C(=O)Nc3ccc(C(C)=O)cc3)CCC(=O)N12` (stereo in doubt) [Compound 35, (6S,9aS)-6-Ethylsulfanylmethyl-8-[2-(3-fluoro-phenyl)-ethyl]-4,7-dioxo-hexahydro-pyrazino[1,2-a]pyrimidine-1-carboxylic acid (4-acetyl-phenyl)-amide] belongs 244 nM; to `CSCC1C(=O)N(CCc2cccc(F)c2)C[C@@H]2N(C(=O)Nc3ccc(C(C)=O)cc3)CCC(=O)N12` (stereo in doubt) [Compound 37, (6S,9aS)-8-[2-(3-Fluoro-phenyl)-ethyl]-6-methylsulfanylmethyl-4,7-dioxo-hexahydro-pyrazino[1,2-a]pyrimidine-1-carboxylic acid (4-acetyl-phenyl)-amide], 704 nM; to `CC(=O)c1ccc(NC(=O)N2CCC(=O)N3C(CSCc4ccccc4)C(=O)N(CCc4cccc(F)c4)C[C@H]23)cc1` (stereo in doubt) [Compound 41, (6S,9aS)-6-Benzylsulfanylmethyl-8-[2-(3-fluoro-phenyl)-ethyl]-4,7-dioxo-hexahydro-pyrazino [1,2-a]pyrimidine-1-carboxylic acid (4-acetyl-phenyl)-amide], 237 nM. Under `CC(=O)c1ccc(NC(=O)N2CCC(=O)N3C(C[S+]([O-])Cc4ccccc4)C(=O)N(CCc4cccc(F)c4)C[C@H]23)cc1` (stereo in doubt) [Compound 44, (6S,9aS)-8-[2-(3-Fluoro-phenyl)-ethyl]-4,7-dioxo-6-phenylmethanesulfinylmethyl-hexahydro-pyrazino[1,2-a]pyrimidine-1-carboxylic acid (4-acetyl-phenyl)-amide] stands 3440 nM; under `CC(=O)c1ccc(NC(=O)N2CCC(=O)N3C(CS(=O)(=O)Cc4ccccc4)C(=O)N(CCc4cccc(F)c4)C[C@H]23)cc1` (stereo in doubt) [Compound 45, (6S,9aS)-8-[2-(3-Fluoro-phenyl)-ethyl]-4,7-dioxo-6-phenylmethanesulfonylmethyl-hexahydro-pyrazino[1,2-a]pyrimidine-1-carboxylic acid (4-acetyl-phenyl)-amide], 1940 nM. `CC[C@H](C)[C@H]1C(=O)N(CCc2cccc(F)c2)C[C@@H]2N(C(=O)Nc3ccc(C(C)=O)cc3)CCC(=O)N12` (stereo in doubt) [Compound 47, (6S,9aS)-6-(1R-Methyl-propyl)-8-[2-(3-fluoro-phenyl)-ethyl]-(S,S)-4,7-dioxo-hexahydro-pyrazino[1,2-a]pyrimidine-1-carboxylic acid (4-acetyl-phenyl)-amide] displayed an IC50 of 192 nM. To `CC(=O)c1ccc(NC(=O)N2CCC(=O)N3[C@@H](C4CCCCC4)C(=O)N(CCc4ccccc4)C[C@H]23)cc1` [Compound 1, (6S,9aS)-6-Cyclohexyl-4,7-dioxo-8-phenethyl-hexahydro-pyrazino[1,2-a]pyrimidine-1-carboxylic acid (4-acetyl-phenyl)-amide] belongs 80 nM; to `CS(=O)(=O)c1ccc(NC(=O)N2CCC(=O)N3[C@@H](C4CCCCC4)C(=O)N(CCc4ccccc4)C[C@H]23)cc1` [Compound 17, (6S,9aS)-6-Cyclohexyl-4,7-dioxo-8-phenethyl-hexahydro-pyrazino[1,2a]pyrimidine-1-carboxylic acid (4-methanesulfonyl-phenyl)-amide], 417 nM.

The compound `C[S+]([O-])c1ccc(NC(=O)N2CCC(=O)N3[C@@H](C4CCCCC4)C(=O)N(CCc4ccccc4)C[C@H]23)cc1` (stereo partly drawn) [Compound 18, (6S,9aS)-6-Cyclohexyl-4,7-dioxo-8-phenethyl-hexahydro-pyrazino[1,2a]pyrimidine-1-carboxylic acid (4-methanesulfinyl-phenyl)-amide] gave an IC50 of 293 nM.

With `CSc1ccc(NC(=O)N2CCC(=O)N3[C@@H](C4CCCCC4)C(=O)N(CCc4ccccc4)C[C@H]23)cc1` [Compound 19, (6S,9aS)-6-Cyclohexyl-4,7-dioxo-8-phenethyl-hexahydro-pyrazino[1,2-a]pyrimidine-1-carboxylic acid (4-methylsulfanyl-phenyl)-amide], the IC50 was determined as 8000 nM. With `CC(=O)c1ccc(NC(=O)N2CCC(=O)N3[C@@H](C(C)C)C(=O)N(CCc4cccc(F)c4)C[C@H]23)cc1` [Compound 20, (6S,9aS)-8-[2-(3-Fluoro-phenyl)-ethyl]-6-isopropyl-4,7-dioxo-hexahydro-pyrazino[1,2-a]pyrimidine-1-carboxylic acid (4-acetyl-phenyl)-amide], the IC50 came to 907 nM. Under `CC[C@H](C)[C@H]1C(=O)N(CCc2cccc(F)c2)C[C@@H]2N(C(=O)Nc3ccc(C(C)=O)cc3)CCC(=O)N12` [Compound 21, (6S,9aS)-6-(1S-Methyl-propyl)-8-[2-(3-fluoro-phenyl)-ethyl]-4,7-dioxo-hexahydro-pyrazino[1,2-a]pyrimidine-1-carboxylic acid (4-acetyl-phenyl)-amide] stands 233 nM; under `CC(=O)c1ccc(NC(=O)N2CCC(=O)N3[C@@H]2CN(CCc2cccc(F)c2)C(=O)[C@@H]3Cc2ccccc2)cc1` [Compound 22, (6S,9aS)-6-Benzyl-8-[2-(3-fluoro-phenyl)-ethyl]-4,7-dioxo-hexahydro-pyrazino[1,2-a]pyrimidine-1-carboxylic acid (4-acetyl-phenyl)-amide], 2190 nM. The compound `CC(=O)c1ccc(NC(=O)N2CCC(=O)N3[C@@H]2CN(CCc2cccc(F)c2)C(=O)[C@@H]3CC(C)C)cc1` [Compound 23, (6S,9aS)-8-[2-(3-Fluoro-phenyl)-ethyl]-6-isobutyl-4,7-dioxo-hexahydro-pyrazino[1,2-a]pyrimidine-1-carboxylic acid (4-acetyl-phenyl)-amide] returned an IC50 of 184 nM.

In turn, `CSCC[C@H]1C(=O)N(CCc2cccc(F)c2)C[C@@H]2N(C(=O)Nc3ccc(C(C)=O)cc3)CCC(=O)N21` [Compound 24, (6S,9aS)-8-[2-(3-Fluoro-phenyl)-ethyl]-6-(2-methylsulfanyl-ethyl)-4,7-dioxo-hexahydro-pyrazino[1,2-a]pyrimidine-1-carboxylic acid (4-acetyl-phenyl)-amide] registered an IC50 of 213 nM. `CC(=O)c1ccc(NC(=O)N2CCC(=O)N3[C@@H]2CN(CCc2cccc(F)c2)C(=O)[C@@H]3C)cc1` [Compound 25, (6S,9aS)-8-[2-(3-Fluoro-phenyl)-ethyl]-6-methyl-4,7-dioxo-hexahydro-pyrazino[1,2-a]pyrimidine-1-carboxylic acid (4-acetyl-phenyl)-amide] yielded an IC50 of 30000 nM. As to `CCCC[C@H]1C(=O)N(CCc2cccc(F)c2)C[C@@H]2N(C(=O)Nc3ccc(C(C)=O)cc3)CCC(=O)N21` [Compound 26, (6S,9aS)-6-Butyl-8-[2-(3-fluoro-phenyl)-ethyl]-4,7-dioxo-hexahydro-pyrazino[1,2-a]pyrimidine-1-carboxylic acid (4-acetyl-phenyl)-amide], the IC50 stood at 117 nM. `CC(=O)c1ccc(NC(=O)N2CCC(=O)N3[C@@H]2CN(CCc2cccc(F)c2)C(=O)[C@@H]3Cc2ccc([N+](=O)[O-])cc2)cc1` [Compound 27, (6S,9aS)-8-[2-(3-Fluoro-phenyl)-ethyl]-6-(4-nitro-benzyl)-4,7-dioxo-hexahydro-pyrazino[1,2-a]pyrimidine-1-carboxylic acid (4-acetyl-phenyl)-amide] came in with an IC50 of 1330 nM. With `CC(=O)c1ccc(NC(=O)N2CCC(=O)N3[C@@H]2CN(CCc2cccc(F)c2)C(=O)[C@@H]3CC2CCCCC2)cc1` [Compound 28, (6S,9aS)-6-Cyclohexylmethyl-8-[2-(3-fluoro-phenyl)-ethyl]-4,7-dioxo-hexahydro-pyrazino[1,2-a]pyrimidine-1-carboxylic acid (4-acetyl-phenyl)-amide], the IC50 amounted to 188 nM. To `CC(=O)c1ccc(NC(=O)N2CCC(=O)N3[C@@H]2CN(CCc2cccc(F)c2)C(=O)[C@@H]3CC(=O)OCc2ccccc2)cc1` [Compound 30, {1-(4-Acetyl-phenylcarbamoyl)-(6S,9aS)-8-[2-(3-fluoro-phenyl)-ethyl]-4,7-dioxo-octahydro-pyrazino [1,2-a]pyrimidin-6-yl}-acetic acid benzyl ester] belongs 2210 nM; to `CC(=O)c1ccc(NC(=O)N2CCC(=O)N3[C@@H]2CN(CCc2cccc(F)c2)C(=O)[C@@H]3CCCCNC(=O)OCc2ccccc2)cc1` [Compound 31, (4-{1-(4-Acetyl-phenylcarbamoyl)-(6S,9aS)-8-[2-(3-fluoro-phenyl)-ethyl]-4,7-dioxo-octahydro-pyrazino[1,2-a]pyrimidin-6-yl}-butyl)-carbamic acid benzyl ester], 1050 nM.

By IC50 is commonly meant the concentration at which inhibition is half-maximal. Read a low IC50 as greater potency in that assay.
